Measured values published in patent publication US20230416270A1, “NOVEL CAMPTOTHECIN DERIVATIVE, COMPOSITION COMPRISING SAME AND USE THEREOF” (priority 2020, published 2023).
Read-outs that look alike come from different tables or passages of the source. Numbered stars: 1 amine (or outer) side, 2 acyl side, 3 side chain; on linkers, the order of the positions; unused ones are H or OH. Square brackets hold non-standard residues; d marks the D form. Peptide text beside a SMILES is read from it. * marks the point of attachment. Exatecan = CC[C@@]1(O)C(=O)OCc2c1cc1n(c2=O)Cc2c-1nc1cc(F)c(C)c3c1c2[C@@H](N*)CC3; Hexanoyl(6-maleimido) = O=C1C=CC(=O)N1CCCCCC(=O)*; NHCH2OCH2CO = O=C(COCN[*:1])[*:2]

Legend:
[1] = system: SK-BR-3 cells; experiment: Assay for antiproliferative activity against SK-BR-3 cells (CellTiter-Lumi, ATP content); type: cell-based; details: for IC50: read-out: IC50 (nM), antiproliferative activity against SK-BR-3 cells
Experimental: The activity of the antibody-drug conjugate of the present invention can be determined by the assay for the in-vitro antiproliferative activity against SK-BR-3 cells of a camptothecin derivative as a small molecule toxin.
SK-BR-3 cells were seeded into a 384-well plate (Fisher 142762) at 3000 cells per well. The next day, serially diluted compounds were added, and 72 hours after the addition, CellTiter-Lumi (Beyotime C0068XL) was added to measure the ATP content in the cells. The growth of the cells was evaluated, and relative IC50 values of the compounds against cell growth was calculated.

[2] = system: SK-BR-3 cells with high expression of HER2; experiment: cells; type: cell-based; details: Homo sapiens, SK-BR-3, 144 h, read-out: IC50 (nM), antiproliferative activity of the antibody-drug conjugates against SK-BR-3 cells
From the text: SK-BR-3 cells with high expression of HER2 were selected as cell strains for in-vitro activity detection in the experiment and were used for evaluating the dose-effect relationship of the antibody-drug conjugates (ADCs) of the present invention on cell killing.

[3] = Homo sapiens, SK-BR-3, 72 hours after compound addition, relative IC50

## CC[C@@]1(O)C(=O)OCc2c1cc1n(c2=O)Cc2c-1nc1cc(F)c(C)c3c1c2C(N)CS3 (stereo partly drawn) [Compound 1, (9S)-1-amino-9-ethyl-5-fluoro-9-hydroxy-4-methyl-1,9,12,15-tetrahydro-13H-pyrano[3′, 4′:6,7]indolizino[1,2-b]thiopyrano[4,3,2-de]quinoline-10,13(2H)-dione]
[1]; Homo sapiens, SK-BR-3, 72 h
  IC50: 2.98 nM

## CC[C@@]1(O)C(=O)OCc2c1cc1n(c2=O)Cc2c-1nc1cc(F)c(C)c3c1c2[C@H](N)CS3 [Compound 1-1]
[1]; Homo sapiens, SK-BR-3, 72 h
  IC50: 5.81 nM

## CC[C@@]1(O)C(=O)OCc2c1cc1n(c2=O)Cc2c-1nc1cc(F)c(C)c3c1c2[C@@H](N)CS3 [Compound 1-2]
[1]; Homo sapiens, SK-BR-3, 72 h
  IC50: 1.73 nM
[1]; SK-BR-3 antiproliferative activity, relative to exatecan
  fold more active than exatecan: 2 fold

## CCc1c(F)cc2nc3c(c4c2c1SC[C@@H]4N)Cn1c-3cc2c(c1=O)COC(=O)[C@]2(O)CC [Compound 3-2]
[1]; [3]
  IC50: 2.85 nM

## CC[C@@]1(O)C(=O)OCc2c1cc1n(c2=O)Cc2c-1nc1cc(F)c(OC)c3c1c2[C@@H](N)CS3 [Compound 4-2]
[1]; Homo sapiens, SK-BR-3, 72 h
  IC50: 2.74 nM

## CC[C@@]1(O)C(=O)OCc2c1cc1n(c2=O)Cc2c-1nc1cc(F)c(C)c3c1c2[C@@H](N)CO3 [Compound 7-2]
[1]; Homo sapiens, SK-BR-3, 72 h
  IC50: 2.68 nM

## CC[C@@]1(O)C(=O)OCc2c1cc1n(c2=O)Cc2c-1nc1cc(F)c(C)c3c1c2[C@@H](NC)CS3 [Compound 14-2]
[1]; Homo sapiens, SK-BR-3, 72 h
  IC50: 4.13 nM

## CC[C@@]1(O)C(=O)OCc2c1cc1n(c2=O)Cc2c-1nc1cc(F)c(C)c3c1c2C(O)CS3 (some centres unmarked) [Compound 20]
[1]; Homo sapiens, SK-BR-3, 72 h
  IC50: 5.83 nM

## CCc1c(F)cc2nc3c(c4c2c1SC[C@@H]4NC(=O)CO)Cn1c-3cc2c(c1=O)COC(=O)[C@]2(O)CC [Compound 34]
[1]; Homo sapiens, SK-BR-3, 72 h
  IC50: 5.84 nM

## CC[C@@]1(O)C(=O)OCc2c1cc1n(c2=O)Cc2c-1nc1cc(F)c(OC)c3c1c2[C@@H](NC(=O)CO)CS3 [Compound 35]
[1]; Homo sapiens, SK-BR-3, 72 h
  IC50: 6.53 nM

## Cc1c(F)cc2nc3c(c4c2c1SC[C@@H]4NC(=O)CO)Cn1c-3cc2c(c1=O)COC(=O)[C@]2(O)CCF [Compound 39]
[1]; Homo sapiens, SK-BR-3, 72 h
  IC50: 4.78 nM

## CC[C@@]1(O)C(=O)OCc2c1cc1n(c2=O)Cc2c-1nc1cc(F)c(C)c3c1c2[C@@H](NC(=O)CO)CO3 [Compound 41]
[1]; Homo sapiens, SK-BR-3, 72 h
  IC50: 6.47 nM

## CC[C@@]1(O)C(=O)OCc2c1cc1n(c2=O)Cc2c-1nc1cc(F)c(C)c3c1c2[C@@H](NC(=O)[C@H](C)O)CS3 [Compound 44]
[1]; Homo sapiens, SK-BR-3, 72 h
  IC50: 6.29 nM

## CC[C@@]1(O)C(=O)OCc2c1cc1n(c2=O)Cc2c-1nc1cc(F)c(C)c3c1c2[C@@H](NC(=O)[C@@H](O)C1CC1)CS3 [Compound 48]
[1]; Homo sapiens, SK-BR-3, 72 h
  IC50: 6.73 nM

## CC[C@@]1(O)C(=O)OCc2c1cc1n(c2=O)Cc2c-1nc1cc(F)c(C)c3c1c2[C@@H](NC(=O)[C@H](O)C1CC1)CS3 [Compound 49]
[1]; Homo sapiens, SK-BR-3, 72 h
  IC50: 7.32 nM

## CC[C@@]1(O)C(=O)OCc2c1cc1n(c2=O)Cc2c-1nc1cc(F)c(C)c3c1c2[C@@H](NC(=O)COCNC(=O)CNC(=O)[C@H](Cc1ccccc1)NC(=O)CNC(=O)CNC(=O)CCCCCN1C(=O)C=CC1=O)CC3 [Deruxtecan, reference compound] ({Hexanoyl(6-maleimido)}-GGFG[NHCH2OCH2CO]-Exatecan)
[1]; SK-BR-3, 72 hours after compound addition, relative IC50
  IC50: 13.6 nM

## CC[C@@]1(O)C(=O)OCc2c1cc1n(c2=O)Cc2c-1nc1cc(F)c(C)c3c1c2[C@@H](N)CC3 [Exatecan, reference compound]
[2]
  IC50: 0.73 nM
[1]; Homo sapiens, SK-BR-3, 72 h
  IC50: 5.35 nM

## CC[C@@]1(O)C(=O)OCc2c1cc1n(c2=O)Cc2cc3c(CN(C)C)c(O)ccc3nc2-1 [Topotecan, reference compound]
[1]; [3]
  IC50: 58.3 nM
